Measured values from patent US20070197559A1, “Aryl substituted purine analogues” (priority 2004, published 2007).
pIC50, pKi: −log10 of the molar value.

Experiments:
human capsaicin receptor = biological target: T1, human capsaicin receptor (Homo sapiens, UniProt Q8NER1); assay: Calcium mobilization assay, determination of antagonist activity; format: cell-based; settings: cells expressing human capsaicin receptor, capsaicin-induced fluorescence response, Example 6
T1 construct: transfected with the pBK-CMV expression construct encoding the full length human capsaicin receptor; expressed in transfected cells
Experimental: A cDNA encoding full length human capsaicin receptor (SEQ ID NO:1, 2 or 3 of U.S. Pat. No. 6,482,611) is subcloned in the plasmid pBK-CMV (Stratagene, La Jolla, Calif.) for recombinant expression in mammalian cells.
Human embryonic kidney (HEK293) cells are transfected with the pBK-CMV expression construct encoding the full length human capsaicin receptor using standard methods. The transfected cells are selected for two weeks in media containing G418 (400 μg/ml) to obtain a pool of stably transfected cells. Independent clones are isolated from this pool by limiting dilution to obtain clonal stable cell lines for use in subsequent experiments.
Cells transfected with expression plasmids (as described in Example 4) and thereby expressing human capsaicin receptor are seeded and grown to 70-90% confluency in FALCON black-walled, clear-bottomed 96-well plates (#3904, BECTON-DICKINSON, Franklin Lakes, N.J.). The culture medium is emptied from the 96 well plates and FLUO-3 AM calcium sensitive dye (Molecular Probes, Eugene, Oreg.) is added to each well (dye solution: 1 mg FLUO-3 AM, 440 μL DMSO and […] pluronic acid in DMSO, diluted 1:250 in Krebs-Ringer HEPES (KRH) buffer (25 mM HEPES, 5 mM KCl, 0.96 mM NaH2PO4, 1 mM MgSO4, 2 mM CaCl2, 5 mM glucose, 1 mM probenecid, pH 7.4), 50 μl diluted solution per well). Plates are covered with aluminum foil and incubated at 37° C. for 1-2 hours in an environment containing 5% CO2. After the incubation, the dye is emptied from the plates, and the cells are washed once with KRH buffer, and resuspended in KRH buffer.
To measure the ability of a test compound to agonize or antagonize a calcium mobilization response in cells expressing capsaicin receptors to capsaicin or other vanilloid agonist, the EC50 of the agonist capsaicin is first determined. An additional 20 μl of KRH buffer and 1 μl DMSO is added to each well of cells, prepared as described above. 100 μl capsaicin in KRH buffer is automatically transferred by the FLIPR instrument to each well. Capsaicin-induced calcium mobilization is monitored using either FLUOROSKAN ASCENT (Labsystems; Franklin, Mass.) or FLIPR (fluorometric imaging plate reader system; Molecular Devices, Sunnyvale, Calif.) instruments. Data obtained between 30 and 60 seconds after agonist application are used to generate an 8-point concentration response curve, with final capsaicin concentrations of 1 nM to 3 μM. KALEIDAGRAPH software (Synergy Software, Reading, Pa.) is used to fit the data to the equation: y=a*(1/(1+(b/x)^c)) to determine the 50% excitatory concentration (EC50) for the response. In this equation, y is the maximum fluorescence signal, x is the concentration of the agonist or antagonist (in this case, capsaicin), a is the Emax, b corresponds to the EC50 value and c is the Hill coefficient. Determination of Agonist Activity
Test compounds are dissolved in DMSO, diluted in 20 μl KRH buffer so that the final concentration of test compounds in the assay well is between 1 μM and 5 μM, and added to cells prepared as described above. The 96 well plates containing prepared cells and test compounds are incubated in the dark, at room temperature for 0.5 to 6 hours. It is important that the incubation not continue beyond 6 hours. Just prior to determining the fluorescence response, 100 μl capsaicin in KRH buffer at twice the EC50 concentration determined as described above is automatically added by the FLIPR instrument to each well of the 96 well plate for a final sample volume of 200 μl and a final capsaicin concentration equal to the EC50. The final concentration of test compounds in the assay wells is between 1 μM and 5 μM. […] The concentration of antagonist required to provide a 50% decrease, relative to the response observed in the presence of capsaicin and without antagonist, is the IC50 for the antagonist, and is preferably below 1 micromolar, 100 nanomolar, 10 nanomolar or 1 nanomolar.

vanilloid receptor (VR) = vanilloid receptor (VR) (Homo sapiens, UniProt Q8NER1); settings: typical value, background; read-out: Ki value (binding to VR); cited from earlier work
vanilloid receptor (VR), sequence (Q8NER1 whole entry): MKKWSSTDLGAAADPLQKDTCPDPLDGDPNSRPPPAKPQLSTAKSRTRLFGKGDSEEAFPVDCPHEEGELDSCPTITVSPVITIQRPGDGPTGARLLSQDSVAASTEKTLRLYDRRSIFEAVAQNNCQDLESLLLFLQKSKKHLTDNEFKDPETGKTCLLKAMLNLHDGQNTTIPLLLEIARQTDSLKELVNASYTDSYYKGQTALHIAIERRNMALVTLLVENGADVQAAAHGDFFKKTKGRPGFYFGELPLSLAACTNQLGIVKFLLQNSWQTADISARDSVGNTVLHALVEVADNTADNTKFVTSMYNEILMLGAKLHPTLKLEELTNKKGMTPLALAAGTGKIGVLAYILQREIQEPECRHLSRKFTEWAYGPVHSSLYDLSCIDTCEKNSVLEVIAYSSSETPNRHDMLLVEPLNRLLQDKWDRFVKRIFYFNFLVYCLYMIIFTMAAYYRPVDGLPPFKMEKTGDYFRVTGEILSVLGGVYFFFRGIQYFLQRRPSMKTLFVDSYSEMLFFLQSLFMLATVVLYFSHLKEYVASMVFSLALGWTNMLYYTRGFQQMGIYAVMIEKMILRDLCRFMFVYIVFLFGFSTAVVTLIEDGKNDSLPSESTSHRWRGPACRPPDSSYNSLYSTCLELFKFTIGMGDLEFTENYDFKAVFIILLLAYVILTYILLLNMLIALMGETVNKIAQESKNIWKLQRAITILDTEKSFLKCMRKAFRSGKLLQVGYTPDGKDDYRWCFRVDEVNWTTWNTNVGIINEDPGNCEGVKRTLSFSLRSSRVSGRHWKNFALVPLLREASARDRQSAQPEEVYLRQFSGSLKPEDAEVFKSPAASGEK

T1 sequence (Q8NER1 whole entry): as above

pIC50 (human capsaicin receptor)	Structure (SMILES)	pKi (vanilloid receptor (VR))
≥ 6.00	Cc1nc2c(Nc3ccc(C(C)(C)C)cc3)ncnc2n1-c1ccccc1Cl [(4-tert-Butyl-phenyl)-[9-(2-chloro-phenyl)-8-methyl-9H-purin-6-yl]amine]	–
≥ 6.00	CC(C)(C)c1ccc(Nc2ncnc3c2ncn3-c2cccc(Cl)c2)cc1 [(4-tert-Butyl-phenyl)-[9-(3-chloro-phenyl)-9H-purin-6-yl]-amine]	–
≥ 6.00	C[C@@H]1CN(Cc2nc(Nc3ccc(C(F)(F)F)cc3)c3cnn(-c4ccccc4Cl)c3n2)C[C@H](C)O1 [[1-(2-Chloro-phenyl)-6-(2,6-dimethyl-morpholin-4-ylmethyl)-1H-pyrazolo[3,4-d]pyrimidin-4-yl]-(4-trifluoromethyl-phenyl)-amine]	–
≥ 6.00	FC(F)(F)c1ccc(Nc2ncnc3c2ncn3Cc2ccccc2Cl)cc1 [[9-(2-Chloro-benzyl)-9H-purin-6-yl]-(4-trifluoromethyl-phenyl)-amine]	–
≥ 6.00	CC(C)(C)c1ccc(Nc2ncnc3c2ncn3Cc2ccccc2Cl)cc1 [(4-tert-Butyl-phenyl)-[9-(2-chloro-benzyl)-9H-purin-6-yl]-amine]	–
–	Cl.Cl.Cl.Cl.Cl.Cl.N.N.N.N.N.N.N.N.N.N.N.N.N.N.[O-2].[O-2].[Ru+3].[Ru+3].[Ru+4] [ruthenium red]	≤ 3.85
≥ 6.00	C[C@@H]1CN(Cc2nc(Nc3ccc(C(C)(C)C)cc3)c3cnn(-c4ccccc4Cl)c3n2)C[C@H](C)O1 [(4-tert-Butyl-phenyl)-[1-(2-chloro-phenyl)-6-(2,6-dimethyl-morpholin-4-ylmethyl)-1H-pyrazolo[3,4-d]pyrimidin-4-yl]-amine]	–
≥ 6.00	N#Cc1ccc(Nc2ncnc3c2ncn3-c2cccc(Cl)c2)cc1 [4-[9-(3-Chloro-phenyl)-9H-purin-6-ylamino]-benzonitrile]	–
≥ 6.00	Clc1ccc(Nc2ncnc3c2ncn3-c2cccc(Cl)c2)cc1 [(4-Chloro-phenyl)-[9-(3-chloro-phenyl)-9H-purin-6-yl]-amine]	–
≥ 6.00	O=S(=O)(c1ccc(Nc2ncnc3c2cnn3-c2ccccc2Cl)cc1)C(F)(F)F [[1-(2-Chloro-phenyl)-1H-pyrazolo[3,4-d]pyrimidin-4-yl]-(4-trifluoromethanesulfonyl-phenyl)-amine]	–
≥ 6.00	CC(C)(C)c1ccc(Nc2ncnc3c2cnn3-c2ncccc2Cl)cc1 [(4-tert-Butyl-phenyl)-[1-(3-chloro-pyridin-2-yl)-1H-pyrazolo[3,4-d]pyrimidin-4-yl]-amine]	–
≥ 6.00	FC(F)(F)c1ccc(Nc2ncnc3c2cnn3-c2ncccc2Cl)cc1 [[1-(3-Chloro-pyridin-2-yl)-1H-pyrazolo[3,4-d]pyrimidin-4-yl]-(4-trifluoromethyl-phenyl)-amine]	–
≥ 6.00	CC(C)(C#N)c1ccc(Nc2ncnc3c2ncn3-c2cccc(Cl)c2)cc1 [2-{4-[9-(3-Chloro-phenyl)-9H-purin-6-ylamino]-phenyl}-2-methyl-propionitrile]	–
≥ 6.00	FC(F)(F)c1ccc(Nc2ncnc3c2ncn3-c2cccc(Cl)c2)cc1 [[9-(3-Chloro-phenyl)-9H-purin-6-yl]-(4-trifluoromethyl-phenyl)-amine]	–
≥ 6.00	CC(C)(C)c1ccc(Nc2ncnc3c2ncn3-c2ccccc2Cl)cc1 [(4-tert-Butyl-phenyl)-[9-(2-chloro-phenyl)-9H-purin-6-yl]-amine]	–

Structure (SMILES)	pIC50 (human capsaicin receptor)	pKi (vanilloid receptor (VR))
CC(C)COCc1nc(Nc2ccc(C(C)(C)C#N)cc2)c2cnn(-c3ccccc3Cl)c2n1 [2-{4-[1-(2-Chloro-phenyl)-6-isobutoxymethyl-1H-pyrazolo[3,4-d]pyrimidin-4-ylamino]-phenyl}-2-methyl-propionitrile]	≥ 6.00	–
CC(C)COCc1nc(Nc2ccc(C(C)(C)C)cc2)c2cnn(-c3ccccc3Cl)c2n1 [(4-tert-Butyl-phenyl)-[1-(2-chloro-phenyl)-6-isobutoxymethyl-1H-pyrazolo[3,4-d]pyrimidin-4-yl]-amine]	≥ 6.00	–
CC(C)COCc1nc(Nc2ccc(C(F)(F)F)cc2)c2cnn(-c3ccccc3Cl)c2n1 [[1-(2-Chloro-phenyl)-6-isobutoxymethyl-1H-pyrazolo[3,4-d]pyrimidin-4-yl]-(4-trifluoromethyl-phenyl)-amine]	≥ 6.00	–
CC(C)COCc1nc(Nc2ccc(C(C)C)cc2)c2cnn(-c3ccccc3Cl)c2n1 [[1-(2-Chloro-phenyl)-6-isobutoxymethyl-1H-pyrazolo[3,4-d]pyrimidin-4-yl]-(4-isopropyl-phenyl)-amine]	≥ 6.00	–
